Where “and” joins values, the source holds several entries; their conditions need not be identical. Equal values may be shown once.

The target in this assay is Adenosine A2A receptor (Homo sapiens, UniProt P29274). The assay can be described thus: cAMP assay in 293A cells stably expressing the adenosine A2A receptor (CGS21680 stimulation, HTRF). Also on record: expressed in transfected cells; host or cells: 293A cells (Invitrogen, Cat# R705-07) infected with A2A-expressing lentivirus (custom packaged by Biosettia), puromycin selected. It is filed as cell-based. The note with it: 293A-A2AR cells, 0.1% BSA, 1 uM CGS; read-out: cAMP (nM) 0.1% BSA, 1 uM CGS.
Adenosine A2A receptor, sequence (P29274 whole entry): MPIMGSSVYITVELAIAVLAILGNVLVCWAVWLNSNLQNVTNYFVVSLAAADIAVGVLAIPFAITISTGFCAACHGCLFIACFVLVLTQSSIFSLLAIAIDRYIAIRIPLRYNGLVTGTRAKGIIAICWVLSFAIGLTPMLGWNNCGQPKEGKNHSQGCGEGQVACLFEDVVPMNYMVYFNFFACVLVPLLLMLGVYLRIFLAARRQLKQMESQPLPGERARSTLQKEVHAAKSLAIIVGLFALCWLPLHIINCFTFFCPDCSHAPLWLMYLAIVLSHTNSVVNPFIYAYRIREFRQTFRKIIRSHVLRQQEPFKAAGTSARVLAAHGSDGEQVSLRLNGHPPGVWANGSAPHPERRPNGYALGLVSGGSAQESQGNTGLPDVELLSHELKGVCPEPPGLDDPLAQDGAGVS
`Cc1cc(-c2c(OCc3nc4c(C(C)(C)C(=O)O)cccc4n3C)nc(N)nc2-c2ccc(F)cc2)cc(C(F)F)n1` [Example 359, 2-(2-(((2-amino-5-(2-(difluoromethyl)-6-methylpyridin-4-yl)-6-(4-fluorophenyl)pyrimidin-4-yl)oxy)methyl)-1-methyl-1H-benzo[d]imidazol-4-yl)-2-methylpropanoic acid]: the IC50 is 9470 nM and 8890 nM.

Take `CCC(C)(C#N)c1cccc(COc2nc(N)nc(-c3ccc(F)cc3)c2-c2cc(C)nc(C(F)F)c2)n1` (stereo not drawn) [Example 360, 2-(6-(((2-amino-5-(2-(difluoromethyl)-6-methylpyridin-4-yl)-6-(4-fluorophenyl)pyrimidin-4-yl)oxy)methyl)pyridin-2-yl)-2-methylbutanenitrile]: the IC50 is 50 nM and 51 nM and 115 nM.

`Cc1cc(-c2c(OCc3nc4c(C(C)(C)O)cccc4n3C)nc(N)nc2-c2ccc(F)cc2)cc(C(F)F)n1` [Example 361, 2-(2-(((2-amino-5-(2-(difluoromethyl)-6-methylpyridin-4-yl)-6-(4-fluorophenyl)pyrimidin-4-yl)oxy)methyl)-1-methyl-1H-benzo[d]imidazol-4-yl)propan-2-ol]: the IC50 was 854 nM and 1110 nM.

Turning to `Cc1cc(-c2c(OCCc3cccc(C(C)(C)C#N)n3)nc(N)nc2-c2ccc(F)cc2)cc(C(F)F)n1` [Example 362, 2-(6-(2-((2-amino-5-(2-(difluoromethyl)-6-methylpyridin-4-yl)-6-(4-fluorophenyl)pyrimidin-4-yl)oxy)ethyl)pyridin-2-yl)-2-methylpropanenitrile], the IC50 was 85 nM and 158 nM and 45 nM.

As for `Cc1cc(-c2c(OCc3cccc(C(C)(C)C(=O)O)c3)nc(N)nc2-c2ccc(F)cc2)cc(C(F)F)n1` [Example 363, 2-(3-(((2-amino-5-(2-(difluoromethyl)-6-methylpyridin-4-yl)-6-(4-fluorophenyl)pyrimidin-4-yl)oxy)methyl)phenyl)-2-methylpropanoic acid], the IC50 was determined as 4800 nM.

For the compound `Cc1cc(-c2c(OCc3ccccn3)nc(NCC(=O)O)nc2-c2ccc(F)cc2)cc(C(F)F)n1` [Example 364, (5-(2-(difluoromethyl)-6-methylpyridin-4-yl)-4-(4-fluorophenyl)-6-(pyridin-2-ylmethoxy)pyrimidin-2-yl)glycine], the IC50 was over 25000 nM.

Take `CCn1c(COc2nc(N)nc(-c3ccc(F)cc3)c2-c2cc(C)nc(C(F)F)c2)nc2ccc(C(C)(C)C(=O)O)nc21` [Example 365, 2-(2-(((2-amino-5-(2-(difluoromethyl)-6-methylpyridin-4-yl)-6-(4-fluorophenyl)pyrimidin-4-yl)oxy)methyl)-3-ethyl-3H-imidazo[4,5-b]pyridin-5-yl)-2-methylpropanoic acid]: the IC50 is over 25000 nM.

Turning to `Cc1cc(-c2c(OCc3nc(C(C)(C)O)cs3)nc(N)nc2-c2ccc(F)cc2)cc(C(F)F)n1` [Example 366, 2-(2-(((2-amino-5-(2-(difluoromethyl)-6-methylpyridin-4-yl)-6-(4-fluorophenyl)pyrimidin-4-yl)oxy)methyl)thiazol-4-yl)propan-2-ol], the IC50 came out at 1690 nM.

Regarding `Cc1cc(-c2c(OCc3ccc(F)c(C(C)(C)C(=O)O)c3)nc(N)nc2-c2ccc(F)cc2)cc(C(F)F)n1` [Example 367, 2-(5-(((2-amino-5-(2-(difluoromethyl)-6-methylpyridin-4-yl)-6-(4-fluorophenyl)pyrimidin-4-yl)oxy)methyl)-2-fluorophenyl)-2-methylpropanoic acid], the IC50 came to 11800 nM.

Turning to `Cc1cc(-c2c(OCc3nc4ccc(C(C)(C)C(=O)O)cc4n3C)nc(N)nc2-c2ccc(F)cc2)cc(C(F)F)n1` [Example 368, 2-(2-(((2-amino-5-(2-(difluoromethyl)-6-methylpyridin-4-yl)-6-(4-fluorophenyl)pyrimidin-4-yl)oxy)methyl)-1-methyl-1H-benzo[d]imidazol-6-yl)-2-methylpropanoic acid], the IC50 is over 25000 nM.

Take `Cc1cc(-c2c(OCc3nc4cc(C(C)(C)C(=O)O)ccc4n3C)nc(N)nc2-c2ccc(F)cc2)cc(C(F)F)n1` [Example 369, 2-(2-(((2-amino-5-(2-(difluoromethyl)-6-methylpyridin-4-yl)-6-(4-fluorophenyl)pyrimidin-4-yl)oxy)methyl)-1-methyl-1H-benzo[d]imidazol-5-yl)-2-methylpropanoic acid]: the IC50 was over 25000 nM.

With `Cc1cc(-c2c(OCc3cccc(C(C)(C)C(=O)O)c3F)nc(N)nc2-c2ccc(F)cc2)cc(C(F)F)n1` [Example 370, 2-(3-(((2-amino-5-(2-(difluoromethyl)-6-methylpyridin-4-yl)-6-(4-fluorophenyl)pyrimidin-4-yl)oxy)methyl)-2-fluorophenyl)-2-methylpropanoic acid], the IC50 came out at 5430 nM.

Turning to `Cc1cc(-c2c(OCc3ncc(C(C)(C)O)s3)nc(N)nc2-c2ccc(F)cc2)cc(C(F)F)n1` [Example 371, 2-(2-(((2-amino-5-(2-(difluoromethyl)-6-methylpyridin-4-yl)-6-(4-fluorophenyl)pyrimidin-4-yl)oxy)methyl)thiazol-5-yl)propan-2-ol], the IC50 came to 2360 nM.

On to `Cc1cc(-c2c(OCCN(C)c3nccc(C(C)(C)C#N)n3)nc(N)nc2-c2ccc(F)cc2)cc(C(F)F)n1` [Example 372, 2-(2-((2-((2-amino-5-(2-(difluoromethyl)-6-methylpyridin-4-yl)-6-(4-fluorophenyl)pyrimidin-4-yl)oxy)ethyl)(methyl)amino)pyrimidin-4-yl)-2-methylpropanenitrile], for which the IC50 was 128 nM and 130 nM and 160 nM.

As for `Cc1cc(-c2c(OCc3nc4nc(C(C)(C)C(=O)O)ccc4n3C)nc(N)nc2-c2ccc(F)cc2)cc(C(F)F)n1` [Example 374, 2-(2-(((2-amino-5-(2-(difluoromethyl)-6-methylpyridin-4-yl)-6-(4-fluorophenyl)pyrimidin-4-yl)oxy)methyl)-1-methyl-1H-imidazo[4,5-b]pyridin-5-yl)-2-methylpropanoic acid], the IC50 was over 25000 nM.

Regarding `Cc1cc(-c2c(OCc3ccc(F)c(C(C)(C)C(=O)O)n3)nc(N)nc2-c2ccc(F)cc2)cc(C(F)F)n1` [Example 375, 2-(6-(((2-amino-5-(2-(difluoromethyl)-6-methylpyridin-4-yl)-6-(4-fluorophenyl)pyrimidin-4-yl)oxy)methyl)-3-fluoropyridin-2-yl)-2-methylpropanoic acid], the IC50 was 17600 nM and 23300 nM.

For `Cc1cc(-c2c(OCc3cccc(N)n3)nc(N)nc2-c2ccc(F)cc2)cc(C(F)F)n1` [Example 376], the IC50 is 133 nM and 209 nM and 375 nM and 142 nM and 48 nM.

Regarding `Cc1cc(-c2c(OCc3ccc(C)c(C(C)(C)C(=O)O)n3)nc(N)nc2-c2ccc(F)cc2)cc(C(F)F)n1` [Example 377, 2-(6-(((2-amino-5-(2-(difluoromethyl)-6-methylpyridin-4-yl)-6-(4-fluorophenyl)pyrimidin-4-yl)oxy)methyl)-3-methylpyridin-2-yl)-2-methylpropanoic acid], the IC50 is 21100 nM.

Take `Cc1cc(-c2c(OCc3ncc(C(C)(C)O)n3C)nc(N)nc2-c2ccc(F)cc2)cc(C(F)F)n1` [Example 378, 2-(2-(((2-amino-5-(2-(difluoromethyl)-6-methylpyridin-4-yl)-6-(4-fluorophenyl)pyrimidin-4-yl)oxy)methyl)-1-methyl-1H-imidazol-5-yl)propan-2-ol]: the IC50 is 430 nM and 173 nM and 247 nM.

Turning to `Cc1cc(-c2c(OCc3ccc4ccccc4n3)nc(N)nc2-c2ccc(F)cc2)cc(C(F)F)n1` [Example 380, 5-(2-(difluoromethyl)-6-methylpyridin-4-yl)-4-(4-fluorophenyl)-6-(quinolin-2-ylmethoxy)pyrimidin-2-amine], the IC50 was 548 nM and 469 nM and 502 nM.

For `Cc1cc(-c2c(OCc3cc4ccccc4cn3)nc(N)nc2-c2ccc(F)cc2)cc(C(F)F)n1` [Example 382, 5-(2-(difluoromethyl)-6-methylpyridin-4-yl)-4-(4-fluorophenyl)-6-(isoquinolin-3-ylmethoxy)pyrimidin-2-amine], the IC50 is 955 nM.

Consider `Cc1cc(-c2c(OCc3cccc(C(C)(C)N)n3)nc(N)nc2-c2ccc(F)cc2)cc(C(F)F)n1` [Example 383, 4-((6-(2-aminopropan-2-yl)pyridin-2-yl)methoxy)-5-(2-(difluoromethyl)-6-methylpyridin-4-yl)-6-(4-fluorophenyl)pyrimidin-2-amine], for which the IC50 came out at 1010 nM.

As for `Cc1cc(-c2c(OCc3cccc(C#CC(C)(C)C(=O)O)n3)nc(N)nc2-c2ccc(F)cc2)cc(C(F)F)n1` [Example 384, 4-(6-(((2-amino-5-(2-(difluoromethyl)-6-methylpyridin-4-yl)-6-(4-fluorophenyl)pyrimidin-4-yl)oxy)methyl)pyridin-2-yl)-2,2-dimethylbut-3-ynoic acid], the IC50 stood at 15400 nM.

Regarding `Cc1cc(-c2c(OCc3nccn3CCCC(=O)O)nc(N)nc2-c2ccc(F)cc2)cc(C(F)F)n1` [Example 386, 4-(2-(((2-amino-5-(2-(difluoromethyl)-6-methylpyridin-4-yl)-6-(4-fluorophenyl)pyrimidin-4-yl)oxy)methyl)-1H-imidazol-1-yl)butanoic acid], the IC50 is 3820 nM.

Regarding `Cc1cc(-c2c(OCc3cn(C(C)(C)C(=O)O)cn3)nc(N)nc2-c2ccc(F)cc2)cc(C(F)F)n1` [Example 387, 2-(4-(((2-amino-5-(2-(difluoromethyl)-6-methylpyridin-4-yl)-6-(4-fluorophenyl)pyrimidin-4-yl)oxy)methyl)-1H-imidazol-1-yl)-2-methylpropanoic acid], the IC50 stood at 16300 nM.

For `Cc1cc(-c2c(OCc3ccn(C(C)(C)C(=O)O)n3)nc(N)nc2-c2ccc(F)cc2)cc(C(F)F)n1` [Example 388, 2-(3-(((2-amino-5-(2-(difluoromethyl)-6-methylpyridin-4-yl)-6-(4-fluorophenyl)pyrimidin-4-yl)oxy)methyl)-1H-pyrazol-1-yl)-2-methylpropanoic acid], the IC50 was found to be 7660 nM.

In the case of `CCC(C#N)(CC)c1cccc(COc2nc(N)nc(-c3ccc(F)cc3)c2-c2cc(C)nc(C(F)F)c2)n1` [Example 390, 2-(6-(((2-amino-5-(2-(difluoromethyl)-6-methylpyridin-4-yl)-6-(4-fluorophenyl)pyrimidin-4-yl)oxy)methyl)pyridin-2-yl)-2-ethylbutanenitrile], the IC50 was 85 nM and 98 nM and 51 nM.

The values are drawn from US20210355104A1, “ADENOSINE RECEPTOR BINDING COMPOUNDS” (Nikang Therapeuticsm Inc., priority 2018, published 2021).
